Reference: the supplement of paper PMC13380429

Experiments:
Details in all cases: 72 h
U2OS [1] = assay: drug sensitivity score (DSS) for viability; higher = more toxic; extreme values may be limits of the assay
Caco-2 [2] = assay: as above
HepG2 [3] = assay: as above
Vero E6 [4] = assay: as above
Calu-3 [5] = assay: as above
U2OS [6] = assay: relative viability EC50 (midpoint between 100% and the lowest measured viability); higher = less toxic
Calu-3 [7] = assay: as above
U2OS [8] = assay: cell viability relative to DMSO; higher = less toxic
Caco-2 [9] = assay: as above
HepG2 [10] = assay: as above
Vero E6 [11] = assay: as above
Calu-3 [12] = assay: as above
Vero E6 [13] = assay: relative viability EC50 (midpoint between 100% and the lowest measured viability); higher = less toxic
Caco-2 [14] = assay: as above

Structure (SMILES) | drug sensitivity score (U2OS [1]) | drug sensitivity score (Caco-2 [2]) | drug sensitivity score (HepG2 [3]) | drug sensitivity score (Vero E6 [4]) | drug sensitivity score (Calu-3 [5]) | relative viability EC50 (U2OS [6]) [µM] | relative viability EC50 (Calu-3 [7]) [µM] | cell viability (U2OS [8]; 1 nM) [%] | cell viability (U2OS [8]; 10 nM) [%] | cell viability (U2OS [8]; 100 nM) [%] | cell viability (U2OS [8]; 1000 nM) [%] | cell viability (U2OS [8]; 10000 nM) [%] | cell viability (Caco-2 [9]; 1 nM) [%] | cell viability (Caco-2 [9]; 10 nM) [%] | cell viability (Caco-2 [9]; 100 nM) [%] | cell viability (Caco-2 [9]; 1000 nM) [%] | cell viability (Caco-2 [9]; 10000 nM) [%] | cell viability (HepG2 [10]; 1 nM) [%] | cell viability (HepG2 [10]; 10 nM) [%] | cell viability (HepG2 [10]; 100 nM) [%] | cell viability (HepG2 [10]; 1000 nM) [%] | cell viability (HepG2 [10]; 10000 nM) [%] | cell viability (Vero E6 [11]; 1 nM) [%] | cell viability (Vero E6 [11]; 10 nM) [%] | cell viability (Vero E6 [11]; 100 nM) [%] | cell viability (Vero E6 [11]; 1000 nM) [%] | cell viability (Vero E6 [11]; 10000 nM) [%] | cell viability (Calu-3 [12]; 1 nM) [%] | cell viability (Calu-3 [12]; 10 nM) [%] | cell viability (Calu-3 [12]; 100 nM) [%] | cell viability (Calu-3 [12]; 1000 nM) [%] | cell viability (Calu-3 [12]; 10000 nM) [%] | relative viability EC50 (Vero E6 [13]) [µM] | relative viability EC50 (Caco-2 [14]) [µM]
Nc1ncnc2[nH]nc(Nc3ccc(F)cc3)c12 | 0.8 | 2.1 | 2.1 | 2.3 | 1.2 | > 10 | > 10 | 98.5 | 98.9 | 98.4 | 96 | 83 | 95 | 93.5 | 106 | 93.1 | 73.4 | 114 | 101 | 108 | 96.5 | 66.2 | 107 | 103 | 99.8 | 101 | 54.4 | 102 | 101 | 101 | 95.6 | 79.2 | – | –
NCCNc1ccc(NCCN)c2c1C(=O)c1ccncc1C2=O [pixantrone] | 0 | 1.9 | 3.3 | 0 | 0.3 | > 10 | > 10 | 100 | 101 | 96.5 | 103 | 87.2 | 87.4 | 105 | 96.7 | 88.1 | 74.9 | 100 | 94.8 | 98.9 | 90.2 | 62.9 | 104 | 104 | 104 | 94.4 | 97 | 93.4 | 120 | 95.4 | 102 | 82.5 | > 10 | –
O=C1Nc2cc(Cl)c(Cl)cc2N2CCNC[C@H]12 | 0 | 0.7 | – | 0 | 0 | > 10 | > 10 | 102 | 94.9 | 100 | 95 | 96.2 | 110 | 100 | 102 | 92.2 | 85.9 | – | – | – | – | – | 104 | 100 | 100 | 99.1 | 95.7 | 103 | 95.1 | 97.3 | 97.7 | 92.5 | > 10 | > 10
OC[C@H]1O[C@@H](n2cnc3c(NC4CCCC4)nc(Cl)nc32)[C@H](O)[C@@H]1O [2-chloro-N6-cyclopentyladenosine] | – | – | – | 0 | 0 | – | > 10 | – | – | – | – | – | – | – | – | – | – | – | – | – | – | – | 102 | 106 | 98.5 | 99.5 | 104 | 105 | 91.8 | 104 | 92.6 | 106 | > 10 | –
CCc1ccc(CCOc2ccc(CC3SC(=O)NC3=O)cc2)nc1 (stereo unspecified) [pioglitazone] | 0 | 0 | – | 2 | 0.1 | > 10 | > 10 | 94.8 | 94.7 | 96 | 97.8 | 95.8 | 93.1 | 100 | 98.6 | 92.4 | 91.5 | – | – | – | – | – | 99 | 101 | 98.9 | 83 | 85.5 | 94.9 | 98.1 | 95.1 | 106 | 84.1 | > 10 | > 10
O=C(O)CN(CCN(CC(=O)O)CC(=O)O)CC(=O)O [ethylenediaminetetraacetic-acid] | 0 | – | 0 | 0 | 0 | – | – | – | – | – | – | – | – | – | – | – | – | – | – | – | – | – | – | – | – | – | – | – | – | – | – | – | – | –
CC(C)(O)CC[C@@H](O)[C@](C)(O)[C@H]1CC[C@@]2(O)C3=CC(=O)[C@@H]4C[C@@H](O)[C@@H](O)C[C@]4(C)[C@H]3CC[C@]12C [20-hydroxyecdysone] | 0 | 0 | – | – | 0 | > 10 | > 10 | 98 | 101 | 99.2 | 99.7 | 102 | 98.8 | 98.4 | 85.5 | 96.8 | 97.1 | – | – | – | – | – | – | – | – | – | – | 93.6 | 101 | 91 | 102 | 114 | – | > 10
O=c1[nH]c([C@@H]2CCCN2)nc2c1oc1ccc(Cl)cc12 | 0 | 1.2 | 4.2 | 2.4 | – | > 10 | – | 95 | 100 | 93.4 | 96.7 | 90.9 | 96.9 | 87 | 87.5 | 93.5 | 83.1 | 97 | 98.2 | 104 | 83.5 | 60.3 | 103 | 99.7 | 104 | 90.9 | 71.8 | – | – | – | – | – | – | > 10
